According to patent US8173653B2, “Pyridiazinone derivatives for the treatment of tumours” (Merck Patent Gesellschaft MIT Beschraenkter Haftung, priority 2005, dated 2012):
pIC50: −log10 of the molar value.

Molecular target: T1, Met kinase (Homo sapiens, UniProt P08581)
T1 construct: 6His (N); purchased Upstate 14-526; host or cells: insect cells (Sf21; S. frugiperda), baculovirus
Experiment: Met kinase inhibition (enzyme assay), flashplate method
Assay type: biochemical
Method: Flashplate Method (Met Kinase)
The test plates used are 96-well Flashplate® microtitre plates from Perkin Elmer (Cat. No. SMP200). The components of the kinase reaction described below are pipetted into the assay plate. The Met kinase and the substrate poly Ala-Glu-Lys-Tyr, (PAGLT, 6:2:5:1), are incubated for 3 hrs at room temperature with radioactively labelled ^33P-ATP in the presence and absence of test substances in a total volume of 100 μl. The reaction is terminated using 150 μl of a 60 mM EDTA solution. After incubation for a further 30 min at room temperature, the supernatants are filtered off with suction, and the wells are washed three times with 200 μl of 0.9% NaCl solution each time. The measurement of the bound radioactivity is carried out by means of a scintillation measuring instrument (Topcount NXT, Perkin-Elmer).
The full value used is the inhibitor-free kinase reaction. This should be approximately in the range 6000-9000 cpm. The pharmacological zero value used is staurosporin in a final concentration of 0.1 mM. The inhibitory values (IC50) are determined using the RS1_MTS program.
Kinase reaction conditions per well: • 30 μl of assay buffer • 10 μl of substance to be tested in assay buffer with 10% of DMSO • 10 μl of ATP (final concentration 1 μM cold, 0.35 μCi of ^33P-ATP) • 50 μl of Met kinase/substrate mixture in assay buffer; (10 ng of enzyme/well, 50 ng of pAGLT/well)
Assay Buffer: • 50 mM HEPES • 3 mM magnesium chloride • 3 μM sodium orthovanadate • 3 mM manganese(II) chloride • 1 mM dithiothreitol (DTT) • pH=7.5 (to be set using sodium hydroxide)

T1 sequence (P08581 974-1390 limits assumed): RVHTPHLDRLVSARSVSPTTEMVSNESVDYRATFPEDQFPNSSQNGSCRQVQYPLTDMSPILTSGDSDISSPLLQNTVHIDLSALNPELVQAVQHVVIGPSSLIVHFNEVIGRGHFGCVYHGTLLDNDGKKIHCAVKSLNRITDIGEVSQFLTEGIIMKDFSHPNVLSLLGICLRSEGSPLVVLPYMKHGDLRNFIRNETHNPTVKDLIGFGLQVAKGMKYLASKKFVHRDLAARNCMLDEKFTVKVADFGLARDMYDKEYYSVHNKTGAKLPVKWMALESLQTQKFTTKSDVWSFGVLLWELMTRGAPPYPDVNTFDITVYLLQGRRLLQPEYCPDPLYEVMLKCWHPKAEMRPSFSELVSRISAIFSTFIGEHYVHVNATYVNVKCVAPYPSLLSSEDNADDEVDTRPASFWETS

SMILES | pIC50
CC(=O)Nc1cccc(Cn2nc(-c3cccc(O)c3)ccc2=O)c1 [A2, N-{3-[3-(3-hydroxyphenyl)-6-oxo-6H-pyridazin-1-ylmethyl]phenyl}acetamide] | 6.00 to 8.00
CCOC(=O)Nc1cccc(Cn2nc(-c3ccc(Cl)cc3)ccc2=O)c1 [A3, ethyl {3-[3-(4-chlorophenyl)-6-oxo-6H-pyridazin-1-ylmethyl]phenyl}carbamate] | 6.00 to 8.00
COc1ccc(-c2ccc(=O)n(Cc3cccc(NC(C)=O)c3)n2)cc1OC [A4] | 6.00 to 8.00
CCOC(=O)Nc1cccc(Cn2nc(-c3ccc(F)cc3)ccc2=O)c1 [A5] | 6.00 to 8.00
CCOC(=O)Nc1cccc(Cn2nc(-c3cccc(Br)c3)ccc2=O)c1 [A6] | 6.00 to 8.00
CC(=O)Nc1cccc(Cn2nc(-c3ccc(F)cc3)ccc2=O)c1 [A7] | 6.00 to 8.00
CCOC(=O)Nc1cccc(Cn2nc(-c3ccccc3)ccc2=O)c1 [A9] | 6.00 to 8.00
CCOC(=O)Nc1cccc(Cn2nc(-c3cccc(Cl)c3)ccc2=O)c1 [A10] | 6.00 to 8.00
O=c1ccc(-c2ccc(F)cc2)nn1Cc1ccc2c(c1)OCO2 [A12] | 6.00 to 8.00
O=c1ccc(-c2ccc(F)cc2)nn1Cc1ccc2nsnc2c1 [A14] | 6.00 to 8.00
CN(C)CCCOC(=O)Nc1cccc(Cn2nc(-c3ccc(Cl)cc3)ccc2=O)c1 [A15, 3-dimethylaminopropyl {3-[3-(4-chlorophenyl)-6-oxo-6H-pyridazin-1-ylmethyl]phenyl}carbamate] | 6.00 to 8.00
CN(C)CCCOC(=O)Nc1cccc(Cn2nc(-c3cccc(Cl)c3)ccc2=O)c1 [A17] | 6.00 to 8.00
CCNC(=O)Nc1cccc(Cn2nc(-c3ccc(F)cc3)ccc2=O)c1 [A18, 1-ethyl-3-{3-[3-(4-fluorophenyl)-6-oxo-6H-pyridazin-1-ylmethyl]phenyl}urea] | 6.00 to 8.00
CCOC(=O)Nc1cccc(Cn2nc(-c3cccs3)ccc2=O)c1 [A19] | 6.00 to 8.00
CCNC(=O)Nc1cccc(Cn2nc(-c3cccc(Cl)c3)ccc2=O)c1 [A20] | 6.00 to 8.00
CCOC(=O)Nc1cccc(Cn2nc(-c3cccc(F)c3)ccc2=O)c1 [A38] | 6.00 to 8.00
CN(C)CCCOC(=O)Nc1cccc(Cn2nc(-c3cccc(C#N)c3)ccc2=O)c1 [A61, 3-Dimethylaminopropyl {3-[3-(3-cyanophenyl)-6-oxo-6H-pyridazin-1-ylmethyl]phenyl}carbamate] | 6.00 to 8.00
O=C(Nc1cccc(Cn2nc(-c3cccs3)ccc2=O)c1)OCCCN1CCOCC1 [A71, 3-Morpholin-4-ylpropyl [3-(6-oxo-3-thiophen-2-yl-6H-pyridazin-1-ylmethyl)phenyl]carbamate] | 6.00 to 8.00
O=C(Nc1cccc(Cn2nc(-c3cc(F)cc(F)c3)ccc2=O)c1)OCCCN1CCCC1 [A74, 3-Pyrrolidin-1-ylpropyl {3-[3-(3,5-difluorophenyl)-6-oxo-6H-pyridazin-1-ylmethyl]phenyl}carbamate] | 6.00 to 8.00
COCCCOC(=O)Nc1cccc(Cn2nc(-c3cc(F)cc(F)c3)ccc2=O)c1 [A75, 3-Methoxypropyl {3-[3-(3,5-difluorophenyl)-6-oxo-6H-pyridazin-1-ylmethyl]phenyl}carbamate] | 6.00 to 8.00

SMILES | pIC50
O=C(Nc1cccc(Cn2nc(-c3cc(F)c(F)c(F)c3)ccc2=O)c1)OCCCN1CCOCC1 [A78, 3-Morpholin-4-ylpropyl {3-[6-oxo-3-(3,4,5-trifluorophenyl)-6H-pyridazin-1-ylmethyl]phenyl}carbamate] | 6.00 to 8.00
O=C(Nc1cccc(Cn2nc(-c3ccc(F)c(F)c3)ccc2=O)c1)OCCN1CCOCC1 [A81, 2-Morpholin-4-ylethyl {3-[3-(3,4-difluorophenyl)-6-oxo-6H-pyridazin-1-ylmethyl]phenyl}carbamate] | 6.00 to 8.00
N#Cc1cccc(-c2ccc(=O)n(Cc3cccc(NC(=O)OCCCN4CCOCC4)c3)n2)c1 [A88, 3-Morpholin-4-ylpropyl{3-[3-(3-cyanophenyl)-6-oxo-6H-pyridazin-1-ylmethyl]phenyl}carbamate] | 6.00 to 8.00
CN1CCN(CCOC(=O)Nc2cccc(Cn3nc(-c4ccc(F)c(F)c4)ccc3=O)c2)CC1 [A92, 2-(4-Methylpiperazin-1-yl)ethyl {3-[3-(3,4-difluorophenyl)-6-oxo-6H-pyridazin-1-ylmethyl]phenyl}carbamate] | 6.00 to 8.00
O=C(Nc1cccc(Cn2nc(-c3cc(F)c(F)c(F)c3)ccc2=O)c1)OCCN1CCOCC1 [A95, 2-Morpholin-4-ylethyl {3-[6-oxo-3-(3,4,5-trifluorophenyl)-6H-pyridazin-1-ylmethyl]phenyl}carbamate] | 6.00 to 8.00
CN1CCN(CCCOC(=O)Nc2cccc(Cn3nc(-c4cc(F)c(F)c(F)c4)ccc3=O)c2)CC1 [A101, 3-(4-Methylpiperazin-1-yl)propyl {3-[6-oxo-3-(3,4,5-trifluorophenyl)-6H-pyridazin-1-ylmethyl]phenyl}carbamate] | 6.00 to 8.00
CN1CCN(CCCCOC(=O)Nc2cccc(Cn3nc(-c4cc(F)cc(F)c4)ccc3=O)c2)CC1 [A103, 4-(4-Methylpiperazin-1-yl)butyl {3-[3-(3,5-difluorophenyl)-6-oxo-6H-pyridazin-1-ylmethyl]phenyl}carbamate] | 6.00 to 8.00
CN1CCCC1CCOC(=O)Nc1cccc(Cn2nc(-c3cc(F)cc(F)c3)ccc2=O)c1 (stereo not shown) [A105, 2-(1-Methylpyrrolidin-2-yl)ethyl {3-[3-(3,5-difluorophenyl)-6-oxo-6H-pyridazin-1-ylmethyl]phenyl}carbamate] | 6.00 to 8.00
CN1CCCC(COC(=O)Nc2cccc(Cn3nc(-c4cc(F)cc(F)c4)ccc3=O)c2)C1 (stereo not shown) [A106, 1-Methylpiperidin-3-ylmethyl {3-[3-(3,5-difluorophenyl)-6-oxo-6H-pyridazin-1-ylmethyl]phenyl}carbamate] | 6.00 to 8.00
CN1CCN(CCCOC(=O)Nc2cccc(Cn3nc(-c4cccc(C#N)c4)ccc3=O)c2)CC1 [A107, 3-(4-Methylpiperazin-1-yl)propyl {3-[3-(3-cyanophenyl)-6-oxo-6H-pyridazin-1-ylmethyl]phenyl}carbamate] | 6.00 to 8.00
CCN(CC)CCCOC(=O)Nc1cccc(Cn2nc(-c3cc(F)cc(F)c3)ccc2=O)c1 [A109, 3-Diethylaminopropyl {3-[3-(3,5-difluorophenyl)-6-oxo-6H-pyridazin-1-ylmethyl]phenyl}carbamate] | 6.00 to 8.00
CN(C)CCCCOC(=O)Nc1cccc(Cn2nc(-c3cc(F)cc(F)c3)ccc2=O)c1 [A110, 4-Dimethylaminobutyl {3-[3-(3,5-difluorophenyl)-6-oxo-6H-pyridazin-1-ylmethyl]phenyl}carbamate] | 6.00 to 8.00
O=c1[nH]c2ccc(Cn3nc(-c4cccc(F)c4)ccc3=O)cc2[nH]1 [A127, 5-[3-(3-fluorophenyl)-6-oxo-6H-pyridazin-1-ylmethyl]-1,3-dihydrobenzimidazol-2-one] | 6.00 to 8.00
CNCCCOC(=O)Nc1cccc(Cn2nc(-c3cc(F)cc(F)c3)ccc2=O)c1 [A142, 3-methylaminopropyl {3-[3-(3,5-difluorophenyl)-6-oxo-6H-pyridazin-1-ylmethyl]phenyl}carbamate] | 6.00 to 8.00
O=C(Nc1cccc(Cn2nc(-c3cc(F)cc(F)c3)ccc2=O)c1)OCCN1CCNCC1 [A143, 2-Piperazin-1-ylethyl {3-[3-(3,5-difluorophenyl)-6-oxo-6H-pyridazin-1-ylmethyl]phenyl}carbamate] | 6.00 to 8.00
O=C(Nc1cccc(Cn2nc(-c3cc(F)cc(F)c3)ccc2=O)c1)OCCCN1CCNCC1 [A145, 3-Piperazin-1-ylpropyl {3-[3-(3,5-difluorophenyl)-6-oxo-6H-pyridazin-1-ylmethyl]phenyl}carbamate] | 6.00 to 8.00
CNCCCCOC(=O)Nc1cccc(Cn2nc(-c3cc(F)cc(F)c3)ccc2=O)c1 [A155, 4-Methylaminobutyl {3-[3-(3,5-difluorophenyl)-6-oxo-6H-pyridazin-1-ylmethyl]phenyl}carbamate] | 6.00 to 8.00
O=C(Nc1cccc(Cn2nc(-c3cc(F)cc(F)c3)ccc2=O)c1)OCC1CCNCC1 [A156, Piperidin-4-ylmethyl {3-[3-(3,5-difluorophenyl)-6-oxo-6H-pyridazin-1-ylmethyl]phenyl}carbamate] | 6.00 to 8.00
O=c1ccc(-c2cc(F)cc(F)c2)nn1Cc1ccc2[nH]ncc2c1 [A161, 6-(3,5-difluorophenyl)-2-(1H-indazol-5-ylmethyl)-2H-pyridazin-3-one] | 6.00 to 8.00
O=c1[nH]c2ccc(Cn3nc(-c4cc(F)cc(F)c4)ccc3=O)cc2[nH]1 [A169, 5-[3-(3,5-Difluorophenyl)-6-oxo-6H-pyridazin-1-ylmethyl]-1,3-dihydrobenzimidazol-2-one] | 6.00 to 8.00
